The nature of this data set: gradient 5% acetonitrile 3 min, to 50% in 2 min, to 85% in 15 min, held 3 min, 100 µL/min. The conditions noted are these: column: Zorbax Extend-C18 2.1 x 50 mm; eluents: water / acetonitrile, 0.1% formic acid. An outline of the steps: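 Over 3 months, pure standards in mixtures of ~100 molecules were run by HPLC coupled to a quadrupole time-of-flight mass spectrometer in positive and negative ionization mode. The column was a Zorbax Extend-C18 (2.1 × 50 mm, 1.8 μm) at 100 μL/min, eluted with water and acetonitrile each holding 0.1% formic acid, with 40 μL dead and 900 μL dwell volumes. Retention time was determined from adduct peaks chosen by software and checked manually.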
The compound `Cc1cccc(NS(=O)(=O)c2c(C)sc(C)c2-c2cc(C(F)(F)F)on2)c1` registered an RP-LC retention time of 1180 s.

In turn, `CN1C(=O)CCc2cc(NS(=O)(=O)Cc3ccc(Cl)cc3)ccc21` had an RP-LC retention time of 788 s.

The compound `Cc1ccc(S(=O)(=O)N2CC(=O)N(C3CCCCC3)C(C)(C(=O)NCc3ccccc3)C2)cc1` (centres undefined) registered an RP-LC retention time of 1100 s.

On to `O=C(NCCN1CCCC1)C1CCN(c2nc3cccnc3s2)CC1`, for which the RP-LC retention time is 561 s.

Turning to `OC1(c2ccccn2)CCOC2(CCN(Cc3ccc(Cl)c(F)c3)CC2)C1` (centres undefined), the RP-LC retention time turned out to be 591 s.

Consider `COc1cc(NC(=O)N2CCC(c3cnn(-c4ccccc4)c3)CC2)cc(OC)c1OC`, for which the RP-LC retention time was determined as 852 s.

As to `Cn1c(=O)c2ccn(CC(=O)N3CCN(c4ncccn4)CC3)c2n(C)c1=O`, the RP-LC retention time was 595 s.

Compound `Cn1cccc1-c1noc(C2CCN(S(=O)(=O)c3ccc4c(c3)OCCO4)CC2)n1` yielded an RP-LC retention time of 1000 s.

In turn, `CCOc1ccc(CCNC(=O)C2CCCN(C(=O)c3cc4sccc4n3CC)C2)cc1OCC` (centres undefined) showed an RP-LC retention time of 951 s.

`COc1cccc(CNC(=O)Cn2c(=O)c3c(C(=O)N4CCCCC4)cc(C)nc3n(C)c2=O)c1` displayed an RP-LC retention time of 778 s.

`CCCN1CCn2cc(S(=O)(=O)Nc3cccc(C)c3)cc2C1=O` registered an RP-LC retention time of 777 s.

`CCSc1nc2ccc(NS(=O)(=O)c3cc(C)ccc3C)cc2s1` returned an RP-LC retention time of 1070 s.

For `COc1cc(C=CC(=O)CC(=O)C=Cc2ccc(O)c(OC)c2)ccc1O`, the RP-LC retention time was determined as 891 s.

Consider `COc1ccc(NC(=O)C2=C(C)NC(=O)NC2c2ccccc2Br)c(OC)c1` (centres undefined), for which the RP-LC retention time is 698 s.

The compound `O=C(Cc1nnc(-c2ccc3ncccc3c2)o1)NCCc1ccccc1` yielded an RP-LC retention time of 702 s.

As to `O=C(Cn1nc2n(c1=O)CCCC2)Nc1ccc2c(c1)OCCO2`, the RP-LC retention time came to 635 s.

Turning to `COC(=O)c1ccc(C2NC(=O)c3[nH]nc(-c4ccc(OC)cc4)c32)cc1` (centres undefined), the RP-LC retention time was 702 s.

The compound `Cc1ccc(-c2nc(-c3cccc(-c4ccn[nH]4)c3)no2)cc1` returned an RP-LC retention time of 1090 s.

`CC1=C(c2cccc(Cl)c2)S(=O)(=O)N=C1N1CCC(NC(=O)NCC(C)C)CC1` had an RP-LC retention time of 651 s.

Take `CC(C)n1cnc(S(=O)(=O)N2CCC(C(=O)N3CCN(C(=O)c4ccco4)CC3)CC2)c1`: the RP-LC retention time was found to be 636 s.

For `CN(C(=O)Cn1nc(Cc2ccncc2)c2ccccc2c1=O)c1ccc(Br)cc1`, the RP-LC retention time stood at 655 s.

As to `Cc1nccn1CCNC(=O)C(=O)Nc1ccc2c(c1)N(C(=O)C(C)C)CCC2`, the RP-LC retention time stood at 571 s.

In turn, `COc1ccc2oc(-c3noc(C(=O)NCCCN4CCCC4)n3)c(C)c2c1` came in with an RP-LC retention time of 671 s.

In the case of `COc1cccc(CNC(=O)C2(C)CCCN(C(=O)Nc3cc(C)cc(C)c3)C2)c1` (centres undefined), the RP-LC retention time was 961 s.

Turning to `Cc1cccc(NC(=O)Cn2c(=O)n(-c3ccc(F)cc3)c3ncccc32)c1`, the RP-LC retention time was 876 s.

`CCN(CC)c1nc2cc(C(=O)N3CCN(c4ccccn4)CC3)ccc2c(=O)n1-c1ccccc1` showed an RP-LC retention time of 693 s.

Consider `CCC1CCCCN1C(=O)c1cnc2nc(C)ccc2c1Nc1cc(C)cc(C)c1` (centres undefined), for which the RP-LC retention time turned out to be 722 s.

As for `CCOC(=O)c1ccc(Nc2c(C(=O)N3CCCC(C)C3)cnc3nc(C)ccc23)cc1` (centres undefined), the RP-LC retention time was determined as 669 s.

As for `COC(=O)c1ccc2c(=O)n(CCc3ccccc3)c(N3CCSC3)nc2c1`, the RP-LC retention time came to 1110 s.

In turn, `CC(C)Cn1c(CC2CCN(C(=O)c3n[nH]c4ccccc34)C2)nc2cccnc21` (centres undefined) displayed an RP-LC retention time of 627 s.

Take `Cc1nc2c(c(C)nn2C(C)(C)C)c(C)c1CCC(=O)N1CCN(c2ccccn2)CC1`: the RP-LC retention time came out at 731 s.

Turning to `O=C(NCc1cccc(F)c1)C1CCCN(c2nnc3ccc(Cl)cn23)C1` (centres undefined), the RP-LC retention time came out at 645 s.

`COC(=O)c1cc(OCC(=O)Nc2ccc3c(c2)OCO3)c2cc(C)ccc2n1` registered an RP-LC retention time of 821 s.

The compound `O=C(Nc1cccc(OCc2nnc(-c3ccccc3)o2)c1)c1cncc(Br)c1` registered an RP-LC retention time of 912 s.

On to `COc1ccc(S(=O)(=O)N2CCCC(C(=O)Nc3ccc4c(c3)OCCO4)C2)cc1C` (centres undefined), for which the RP-LC retention time is 958 s.

In turn, `Cc1ccc(NC(=O)Cn2cnc3nc(N4CCC(C(=O)NC5CC5)CC4)sc3c2=O)cc1C` yielded an RP-LC retention time of 693 s.

`COc1nccnc1N1CCC(NC(=O)c2ccsc2)C1` (centres undefined): the RP-LC retention time is 645 s.

`Cc1cc(C(=O)NC2CCc3nnc(C4CC4)n3CC2)c(C)n1Cc1ccco1` (centres undefined) registered an RP-LC retention time of 660 s.

`Cc1ccc(-n2c(=O)n(CC(=O)Nc3ccccc3C)c3cccnc32)cc1`: the RP-LC retention time was 865 s.

On to `CCc1noc(-c2ccnc(-n3ncc(C(=O)NCC(C)C)c3C)c2)n1`, for which the RP-LC retention time came out at 931 s.

In turn, `CCOc1ccc(CNC(=O)C2CCN(C(=O)C3Sc4ccccc4NC3=O)CC2)cc1` (centres undefined) yielded an RP-LC retention time of 743 s.

Compound `CCN1C(=O)COc2cc(-c3noc(C(=O)NCCc4ccccc4)n3)ccc21` showed an RP-LC retention time of 953 s.

In turn, `Cc1c(C#N)c2ccccc2n1CC(=O)NCc1ccc2c(c1)OCCCO2` showed an RP-LC retention time of 856 s.

For the compound `CCCCN1CCN(Cc2nc3nc(C)cc(N4CCCC4)n3n2)CC1`, the RP-LC retention time stood at 574 s.

`Cc1csc(-c2ccc(N3CCN(C(=O)c4ccc(F)cc4)CC3)nc2)n1` came in with an RP-LC retention time of 820 s.

In turn, `COCCCNC(=O)CC1Sc2ncccc2N(C)C1=O` (centres undefined) came in with an RP-LC retention time of 600 s.

On to `CCc1ccc(S(=O)(=O)N2CCN(Cc3nc4cc(C(C)(C)C)ccc4o3)CC2)cc1`, for which the RP-LC retention time was 998 s.

`CSc1ccc(-c2nc3cnccn3c2Nc2ccc(C(=O)NC(C)C)cc2)cc1`: the RP-LC retention time came to 745 s.

Regarding `Cc1ccc(NC(=O)Cn2nc3c(Oc4cccc(F)c4)nccn3c2=O)cc1F`, the RP-LC retention time stood at 894 s.

Regarding `COc1ccccc1N1CCN(S(=O)(=O)c2cc(-c3nc(C(C)C)cs3)sc2C)CC1`, the RP-LC retention time turned out to be 1410 s.

Compound `COc1ccc(NC(=O)c2cc(C(F)(F)F)n(C)n2)c(OC)c1` displayed an RP-LC retention time of 998 s.

`CCn1nc(C)c(S(=O)(=O)N2CCN(C(=O)C(C)Oc3ccccc3)CC2)c1C` (centres undefined): the RP-LC retention time turned out to be 780 s.

In turn, `Cc1ccc(S(=O)Cc2ccc(C(=O)N3CCN(c4ccccn4)CC3)o2)cc1` (centres undefined) showed an RP-LC retention time of 587 s.

On to `CCn1nccc1C(=O)Nc1ccc2sc(C)nc2c1`, for which the RP-LC retention time was found to be 697 s.

Consider `Clc1ccc(-c2ccc(CNCc3ccccn3)o2)cc1`, for which the RP-LC retention time is 689 s.

The compound `CC1(C)CC(=O)c2cn(-c3ccc(Cl)cc3)c(=O)c(C(=O)N3CCN(c4ccccn4)CC3)c2C1` registered an RP-LC retention time of 650 s.

The compound `COCCNC(=O)CC1Sc2ncccc2N(CC(C)C)C1=O` (centres undefined) returned an RP-LC retention time of 659 s.

`CC1(C)C(=O)N(CC(=O)NCc2ccccc2Cl)c2ccccc21` returned an RP-LC retention time of 881 s.

As to `CC(C)c1noc(-c2ccn3c(CC(=O)NC(C)c4ccc(F)cc4)nnc3c2)n1` (centres undefined), the RP-LC retention time was determined as 792 s.

Regarding `Cc1cc(C)cc(-c2nnc(Cc3nc(-c4ccc(Cl)cc4)no3)o2)c1`, the RP-LC retention time came out at 1230 s.

In the case of `CCSc1ccccc1C(=O)Nc1ccc(-c2nc(C)no2)cc1`, the RP-LC retention time was 878 s.

For `CCCN1CCN(C(=O)C2CCCN(c3nc4cccnc4s3)C2)CC1` (centres undefined), the RP-LC retention time worked out at 593 s.

With `Cc1nc(C#Cc2cccnc2)cs1`, the RP-LC retention time is 747 s.

In turn, `CCn1ccc2sc(C)c(C(=O)O)c2c1=O` had an RP-LC retention time of 702 s.

With `Cc1ccc(Nc2c(C(=O)N3CCC(C)CC3)cnc3nc(C)ccc23)c(C)c1`, the RP-LC retention time was 674 s.

As to `COc1nn(C)cc1C(=O)Nc1ccc(-c2cn3ccsc3n2)cc1`, the RP-LC retention time amounted to 575 s.

Turning to `CN1CCC(N2CCN(S(=O)(=O)c3ccccc3Cl)CC2)C1=O` (centres undefined), the RP-LC retention time is 570 s.

`CC(C)c1noc(-c2cccnc2N2CCCN(Cc3cccc(C(F)(F)F)c3)CC2)n1` yielded an RP-LC retention time of 794 s.

Compound `CCc1cccc(NC(=O)Cn2c(C)nc3onc(C)c3c2=O)c1` gave an RP-LC retention time of 861 s.

`COCC(=O)N1CCC2(CC1)NCc1ccccc1-n1ccnc12` gave an RP-LC retention time of 548 s.

As for `CC(C)n1cnc(S(=O)(=O)N2CCCC(C(=O)Nc3cccc4c3CCCC4)C2)c1` (centres undefined), the RP-LC retention time worked out at 865 s.

`O=C(Nc1nc(-c2nc3ccccc3s2)cs1)c1c(F)cccc1F` displayed an RP-LC retention time of 920 s.

Regarding `CCN1C(=O)COc2ccc(-c3noc(-c4ccc(C)cc4)n3)cc21`, the RP-LC retention time amounted to 1230 s.

Turning to `CSc1ccc(-c2nc3cnccn3c2Nc2cccc(C(=O)N3CCCCC3)c2)cc1`, the RP-LC retention time was determined as 807 s.

Compound `CCn1c(=O)c(C)nc2cc(-c3noc(/C=C/c4ccc(OC)cc4)n3)ccc21` returned an RP-LC retention time of 1140 s.

`O=C(CN1C(=O)CCCc2cc(S(=O)(=O)N3CCCC3)ccc21)Nc1ccc(Cl)cc1F` came in with an RP-LC retention time of 897 s.

In turn, `CNC(=O)c1cnn(-c2cccc(C)c2)c1-n1cccc1` gave an RP-LC retention time of 804 s.

`Cc1ccnc(N2CCCC(C(=O)NCCN3CCN(c4ccccc4F)CC3)C2)n1` (centres undefined) had an RP-LC retention time of 614 s.

Regarding `O=C(c1ccc2c(c1)OCO2)N1CCN(c2nc(CN3CCCCC3)cs2)CC1`, the RP-LC retention time is 620 s.

Source of the values: the METLIN SMRT retention time set (Domingo-Almenara et al. 2019).
